Source: patent US20120029015A1, “Novel medical use of kynurenic acid, its precursors and derivatives” (priority 2009, published 2012)
Marks after values point to notes of the source that are not given here.

Legend:
Type in all cases: in vivo, Wistar rats
[1] = test system: caerulein-induced destruction of pancreatic tissue (DPT); test: Serum α-amylase activity in caerulein-induced DPT; conditions: mean
Procedure: The experiments were performed using adult male Wistar rats. All experimental procedures were in compliance with currently accepted guidelines for care and use of animals. The study protocol was approved by the Bioethics Committee. Before the experiment, rats were given no food for 24 hours, water was available in unrestricted quantities. Destruction of pancreatic tissue (DPT) was induced by injections of caerulein (dose of 15 μg/kg/hr). Animals were randomly assigned to the following groups. […] After 6 hours from inducing DPT antioxidative effects were determined by means of measuring the ferric reducing ability of plasma (FRAP) and levels of the markers of oxidative stress: malonyldialdehyde and 4-hydroxynonenals (MDA+4-HNE). The measurement of pancreatic edema, the serum α-amylase activity and histopathological analysis of pancreas were carried out to assess the progress of the disease. The extent of the serum α-amylase elevation is roughly proportional to the degree of destruction of pancreatic tissue. In Table 3 it is shown that kynurenic acid in the dose of 100 mg/kg/hr prevents elevation of α-amylase in the serum of caerulein-treated rats. Kynurenic acid in the dose of 50 mg/kg/hrs was also effective. […]

[2] = test system: caerulein-induced destruction of pancreatic tissue (DPT); test: Histological changes in pancreatic tissue in caerulein-induced DPT; conditions: KYNA 100 mg/kg/hr + caerulein; mean ± SD; scale 0-3
Procedure: The experiments were performed using adult male Wistar rats. All experimental procedures were in compliance with currently accepted guidelines for care and use of animals. The study protocol was approved by the Bioethics Committee. Before the experiment, rats were given no food for 24 hours, water was available in unrestricted quantities. Destruction of pancreatic tissue (DPT) was induced by injections of caerulein (dose of 15 μg/kg/hr). Animals were randomly assigned to the following groups. […] After 6 hours from inducing DPT antioxidative effects were determined by means of measuring the ferric reducing ability of plasma (FRAP) and levels of the markers of oxidative stress: malonyldialdehyde and 4-hydroxynonenals (MDA+4-HNE). The measurement of pancreatic edema, the serum α-amylase activity and histopathological analysis of pancreas were carried out to assess the progress of the disease. Histopathological presentation of pancreas injury consists of edema, vacuolization or necrosis (Table 2). Since in the situation of application of a pancreas damaging agent caerulein kynurenic acid in the dose of 100 mg/kg/hr prevents or diminishes edema, vacuolization, and number of necrotic foci, kynurenic acid, its salts and derivatives may be of use in prevention and therapy of conditions leading to destruction of pancreatic tissue and are characterized by such histological picture.

[3] = test system: caerulein-induced destruction of pancreatic tissue (DPT); test: Antioxidant capacity of plasma (FRAP) in caerulein-induced DPT; conditions: KYNA 100 mg/kg/hr + caerulein, mean
Procedure: (§1) The experiments were performed using adult male Wistar rats. All experimental procedures were in compliance with currently accepted guidelines for care and use of animals. The study protocol was approved by the Bioethics Committee. Before the experiment, rats were given no food for 24 hours, water was available in unrestricted quantities. Destruction of pancreatic tissue (DPT) was induced by injections of caerulein (dose of 15 μg/kg/hr). Animals were randomly assigned to the following groups. […] After 6 hours from inducing DPT antioxidative effects were determined by means of measuring the ferric reducing ability of plasma (FRAP) and levels of the markers of oxidative stress: malonyldialdehyde and 4-hydroxynonenals (MDA+4-HNE). The measurement of pancreatic edema, the serum α-amylase activity and histopathological analysis of pancreas were carried out to assess the progress of the disease.

[4] = test system: caerulein-induced destruction of pancreatic tissue (DPT); test: Water content of pancreatic tissue (pancreatic edema) in caerulein-induced destruction of pancreatic tissue; conditions: for Water content of pancreas: 6 hours after inducing DPT, % of wet weight, mean
Procedure: as §1, with “disease. […] Kynurenic acid in the dose of 50 mg/kg/hrs was also effective (Table 1). Since kynurenic acid prevents edema induced by the pancreas damaging factor caerulein, kynurenic acid, its salts and derivatives may be used in prevention and therapy of conditions leading to injury of pancreatic tissue.” for “disease.”

[5] = test system: caerulein-induced destruction of pancreatic tissue (DPT); test: Plasma levels of lipid peroxidation products (MDA + 4-HNE) in caerulein-induced DPT; conditions: KYNA 100 mg/kg/hr + caerulein, mean
Procedure: as §1, with “disease. In the group of animals with caerulein-induced destruction of pancreatic tissue significant increase of concentration of malonyldialdehyde (MDA) and 4-hydroxynonenals (4-HNE), two markers of oxidative stress, occurred.” for “disease.”

## O=C(O)c1cc(O)c2ccccc2n1 [KYNA, kynurenic acid]
[1]; KYNA 50 mg/kg/hr + caerulein
  Serum α-amylase activity: 5262.26^#* U/l
[1]; KYNA 100 mg/kg/hr + caerulein
  Serum α-amylase activity: 3495.20* U/l
[2]
  Edema (0-3), histological score: 1.6 ± 0.45
  Necrosis (0-3), histological score: 0.0 ± 0.0
  Vacuolisation (0-3), histological score: 0.8 ± 0.44
[3]
  FRAP (Ferric Reducing Ability of Plasma): 602.4* μM
[4]; KYNA 50 mg/kg/hr infusion + caerulein
  Water content of pancreas: 73.03* %
[4]; KYNA 100 mg/kg/hr infusion + caerulein
  Water content of pancreas: 68.22* %
[4]; KYNA 100 mg/kg/hr infusion + caerulein, macroscopic presentation
  Macroscopic edema of pancreas: no edema was noted
[5]
  MDA + 4-HNE plasma level: 3.11* nmol/ml
